Values quoted from earlier work as cited in patent publication US7419996B2, “Parenteral and oral formulations of benzimidazoles” (The University of Houston, priority 2003, dated 2008).
Where two headings read alike, the source gives them in different places.

System: rodents

In the case of C[S+](C)[O-] [DMSO, dimethylsulfoxide], the LD50 (intravenously) is listed as 3.1 gm/kg and the LD50 (orally) is listed as 7.92 gm/kg.
